Laboratory results as given in patent US20250129054A1 (Terran Biosciences Inc., priority 2022, published 2025).

Experiment: Serial tail vein bleed PK study in SD rats: methylone measured in plasma after IV or oral methylone or oral methylone prodrugs
Format: in vivo, Sprague Dawley rats
Conditions: 10 mg/kg, rat
Protocol: A pharmacokinetic (PK) study was performed in three male Sprague-Dawley (SD) rats following intravenous (IV) and oral (PO) administration of methylone at 1 mg/kg (IV) and 10 mg/kg (PO) respectively, or test compounds (prodrugs of methylone) at 10 mg/kg (PO). Parent compound (methylone) was measured in plasma.
Samples were sent for method optimization and measurement of parent compound (methylone) via unique calibration lines and following acceptance QC's. Dose formulation concentrations were also measured, and PK parameters were determined (Cmax (ng/mL), Tmax (hr), Cl (ml/min/kg), Vdss (L/kg), t½(hr), AUC0-t (ng/mL*hr), AUC0-inf (ng/mL*hr), MIRT (hr), Bioavailability ([…]) where warranted) using WinNon Lin software. Data (including bioanalytical results and assay performance) were reported in a tabulated format.
Formulation for PO Administration: For PO dosing, the prodrug was formulated in 10% DMSO/20% PEG400/70% water to a concentration of 2 mg free metabolite material/mL. This provided a dose of 10 mg free metabolite/kg when the prodrug was administered PO in 5 mL/kg dosing volumes.
Formulation for IV administration: For IV dosing, rac-methylone was formulated as solution in saline to a concentration of 0.5 mg free metabolite material/mL. This provided a dose of 1 mg free metabolite/kg when administered IV in 2 mL/kg dosing volumes.
The pharmacokinetic properties of the synthesized methylone prodrugs after oral administration in a rat model were assessed. The concentration of methylone was measured in each rat at various sampling timepoints after IV or oral administration of rac-methylone or the synthesized methylone prodrugs to rats.
Dose formulations were made at equivalent concentrations of active compound (methylone) adjusted for molecular weight of the compounds. The synthesized methylone prodrugs or analogs were dosed at 10 mg/kg oral (PO) nominal dose. Nominal doses were used in PK parameter determinations. The parent compound (methylone) was dosed at 1 mg/kg intravenous (IV) and 10 mg/kg (PO).

[1] = 0.500 h after oral dosing of the prodrug, individual animals
[2] = 0.500 h after oral dosing of the prodrug, mean
[3] = 1.00 h after oral dosing of the prodrug, individual animals
[4] = 1.00 h after oral dosing of the prodrug, mean
[5] = 2.00 h after oral dosing of the prodrug, individual animals
[6] = 2.00 h after oral dosing of the prodrug, mean
[7] = 4.00 h after oral dosing of the prodrug, individual animals
[8] = 4.00 h after oral dosing of the prodrug, mean
[9] = 7.00 h after oral dosing of the prodrug, individual animals
[10] = 7.00 h after oral dosing of the prodrug, mean
[11] = 24.0 h after oral dosing of the prodrug, individual animals
[12] = 24.0 h after oral dosing of the prodrug, mean

Row | SMILES | Plasma Concentrations of metabolite methylone [1] | Plasma Concentrations of metabolite methylone [2] | Plasma Concentrations of metabolite methylone [3] | Plasma Concentrations of metabolite methylone [4] | Plasma Concentrations of metabolite methylone [5] | Plasma Concentrations of metabolite methylone [6] | Plasma Concentrations of metabolite methylone [7] | Plasma Concentrations of metabolite methylone [8] | Plasma Concentrations of metabolite methylone [9] | Plasma Concentrations of metabolite methylone [10] | Plasma Concentrations of metabolite methylone [11] | Plasma Concentrations of metabolite methylone [12]
1 | CC(C(=O)c1ccc2c(c1)OCO2)N(C)C(=O)C(C)(C)C (stereo not drawn) [PG, N-[2-(1,3-Benzodioxol-5-yl)-1-methyl-2-oxo-ethyl]-N-2,2-trimethyl-propanamide] | BLQ (Below Lower Limit of Quantification (0.5 ng/mL)) | BLQ (Below Lower Limit of Quantification (0.5 ng/mL)) | BLQ (Below Lower Limit of Quantification (0.5 ng/mL)) | BLQ (Below Lower Limit of Quantification (0.5 ng/mL)) | BLQ (Below Lower Limit of Quantification (0.5 ng/mL)) | BLQ (Below Lower Limit of Quantification (0.5 ng/mL)) | BLQ (Below Lower Limit of Quantification (0.5 ng/mL)) | BLQ (Below Lower Limit of Quantification (0.5 ng/mL)) | BLQ (Below Lower Limit of Quantification (0.5 ng/mL)) | BLQ (Below Lower Limit of Quantification (0.5 ng/mL)) | BLQ (Below Lower Limit of Quantification (0.5 ng/mL)) | BLQ (Below Lower Limit of Quantification (0.5 ng/mL))
2 | CC(C(=O)c1ccc2c(c1)OCO2)N(C)C(=O)C(F)(F)F (stereo not drawn) [Compound 2B, N-[2-(1,3-Benzodioxol-5-yl)-1-methyl-2-oxo-ethyl]-2,2,2-trifluoro-N-methyl-acetamide] | BLQ (Below Lower Limit of Quantification (0.5 ng/mL)) | BLQ (Below Lower Limit of Quantification (0.5 ng/mL)) | BLQ (Below Lower Limit of Quantification (0.5 ng/mL)) | BLQ (Below Lower Limit of Quantification (0.5 ng/mL)) | BLQ (Below Lower Limit of Quantification (0.5 ng/mL)) | BLQ (Below Lower Limit of Quantification (0.5 ng/mL)) | BLQ (Below Lower Limit of Quantification (0.5 ng/mL)) | BLQ (Below Lower Limit of Quantification (0.5 ng/mL)) | BLQ (Below Lower Limit of Quantification (0.5 ng/mL)) | BLQ (Below Lower Limit of Quantification (0.5 ng/mL)) | BLQ (Below Lower Limit of Quantification (0.5 ng/mL)) | BLQ (Below Lower Limit of Quantification (0.5 ng/mL))
3 | CC(C(=O)c1ccc2c(c1)OCO2)N(C)C(=O)CCCC(=O)OC(C)(C)C (stereo not drawn) [Compound 3C, tert-Butyl 4-{[2-(2H-1,3-benzodioxol-5-yl)-1-methyl-2-oxo-ethyl]-N-methylcarbamoyl}butyrate] | BLQ (Below Lower Limit of Quantification (0.5 ng/mL)) | BLQ (Below Lower Limit of Quantification (0.5 ng/mL)) | BLQ (Below Lower Limit of Quantification (0.5 ng/mL)) | BLQ (Below Lower Limit of Quantification (0.5 ng/mL)) | BLQ (Below Lower Limit of Quantification (0.5 ng/mL)) | BLQ (Below Lower Limit of Quantification (0.5 ng/mL)) | BLQ (Below Lower Limit of Quantification (0.5 ng/mL)) | BLQ (Below Lower Limit of Quantification (0.5 ng/mL)) | BLQ (Below Lower Limit of Quantification (0.5 ng/mL)) | BLQ (Below Lower Limit of Quantification (0.5 ng/mL)) | BLQ (Below Lower Limit of Quantification (0.5 ng/mL)) | BLQ (Below Lower Limit of Quantification (0.5 ng/mL))
